# Reference: ChEMBL document CHEMBL1143125, “DNA cleavage by novel copper (II) complex and the role of beta-cyclodextrin in promoting cleavage” (Bioorg Med Chem, 2008)
# How the values were obtained:
# [1] = tested on: DNA; experiment: Binding affinity to calf thymus DNA assessed by fluorescence quenching assay; format: nucleic-acid assay; settings: Bos taurus
# [2] = tested on: Escherichia coli; experiment: Induction of Escherichia coli pUC19 DNA cleavage assessed as non-cleaved DNA level at 0.714 mM after 12 hrs
K [1] [L/mol],Activity [2] [%],SMILES
30000,7.4,NC(CCC(=O)Nc1cccc2ccccc12)C(=O)N1CCNCCNCCNCC1 (stereo not drawn)
–,6.3,OC[C@H]1O[C@@H]2O[C@H]3[C@H](O)[C@@H](O)[C@@H](O[C@H]4[C@H](O)[C@@H](O)[C@@H](O[C@H]5[C@H](O)[C@@H](O)[C@@H](O[C@H]6[C@H](O)[C@@H](O)[C@@H](O[C@H]7[C@H](O)[C@@H](O)[C@@H](O[C@H]8[C@H](O)[C@@H](O)[C@@H](O[C@H]1[C@H](O)[C@H]2O)O[C@@H]8CO)O[C@@H]7CO)O[C@@H]6CO)O[C@@H]5CO)O[C@@H]4CO)O[C@@H]3CO
